Measured values: patent US10981953B2, “Method for promoting expression of calreticulin, and synthetic peptide for use in method for promoting expression of calreticulin” (TOAGOSEI CO., LTD., priority 2013, dated 2021)

Legend:
[1] = system: BXM14 cells, a cultured cell line of mouse ES cells; assay: Calreticulin expression-promoting activity in ES cells, immunofluorescent antibody technique (Example 4); format: cell-based; details: mouse ES cells BXM14, peptide 50 μM, 3 days culture, confocal laser microscopy
Protocol: The calreticulin expression-promoting activity of the Samples 1 to 12 obtained in Example 1 was investigated. BXM14 cells, a cultured cell line of mouse ES cells (hereunder sometimes called “BXM14”), were used as the test cells. The details of the evaluation test were as follows.
The sample ES cells (BXM14) were seeded to a cell density of about 1×10^4 cells per well on 4-well slides. Using DMEM medium (Wako Pure Chemical, Cat No. 043-30085) containing 15% Knockout™ Serum Replacement (hereunder sometimes called “KSR”; Life Technologies, Cat No. 10828), 0.1 mM Non-essential Amino Acids Solution (hereunder sometimes called “NEAA”; Wako Pure Chemical, Cat No. 139-15651), 0.1 mM 2-mercaptoethanol (Sigma-Aldrich, Cat No. M7522) and 1000 units/mL of StemSure™ LIF, Mouse, recombinant, Solution (hereunder sometimes called “mLIF”; Wako Pure Chemical, Cat No. 199-116051), the cells were cultured overnight in an incubator under conditions of 5% CO2, 37° C. The DMEM medium containing KSR, NEAA, 2-mercaptoethanol and mLIF is also called simply “ES DMEM medium”. […]
These figures (images) are fluorescence micrographs examining calreticulin expression in each test group, and each combines (merges) a fluorescent image showing results for calreticulin expression in ES cells as measured by the immunofluorescent antibody technique with an image showing nuclear staining by DAPI.

[2] = system: iPS cells (clone name 201B2); assay: Calreticulin expression-promoting activity in iPS cells, immunofluorescent antibody technique (Example 3); format: cell-based; details: human iPS cells 201B2, peptide 10 μM, 5 days culture, confocal laser microscopy
Protocol: The calreticulin expression-promoting activity of the Samples 1 to 12 obtained in Example 1 was investigated. iPS cells (clone name 201B2, sometimes called simply 201B2 below) established from human fibroblasts were used as the test cells (source: Takahashi K et al., Cell, 131, 861-872 (2007)). These iPS cells were supplied by the Center for iPS Cell Research and Application, Kyoto University.
The test iPS cells (201B2) were seeded to a cell density of about 1×10^4 cells per well on matrigel-coated 8-well slides. Using mTeSR™ 1 medium (Stemcell Technologies) as the medium, the cells were cultured overnight in an incubator under conditions of 5% CO2, 37° C. Following this overnight culture, fresh mTeSR™ medium containing the peptides of Samples 1 to 12 in an amount yielding a peptide concentration of 10 μM was substituted, and the cells were further cultured for 5 days under the same conditions. Every day during this 5-day culture period, the medium was replaced with mTeSR™ 1 medium containing the peptides of Samples 1 to 12 in an amount yielding a peptide concentration of 10 μM. A peptide-free group was established as a control.
After completion of this culture, calreticulin expression in each test group was investigated by the immunofluorescent antibody technique (fluorescent immunostaining) using an anti-calreticulin antibody as in Example 2 except that a mixed solution of 1 vol. methanol and 1 vol. acetone (methanol:acetone=1:1 solution) was used to fix the cells, and the final concentration of the primary antibody was adjusted to 4×10^−3 mg/mL.
These figures are fluorescence micrographs examining calreticulin expression in each test group, and each combines (merges) a fluorescent image showing results for calreticulin expression in iPS cells as measured by the immunofluorescent antibody technique with an image showing nuclear staining by DAPI.

[3] = system: HeLaS3 cells; assay: Calreticulin expression-promoting activity in tumor cells, immunofluorescent antibody technique (Example 2); format: cell-based, human; details: peptide 10 μM, 5 days culture, confocal laser microscopy
Description: The calreticulin expression-promoting activity of the peptides of the Samples 1 to 12 obtained in Example 1 above was investigated. The sample cells were HeLaS3 cells (ATCC CCL2.2), a cultured cell line derived from human cervical cancer. These HeLaS3 cells (ATCC CCL2.2) are known as a genomically unstable cultured cell line, which has been confirmed to have multiple chromosome duplications or in other words chromosomal abnormalities (karyotypic abnormalities). The details of the evaluation test are as follows.
HeLaS3 cells were seeded on 8-well slides to a cell density of about 1×10^3 cells per well. […]
A diluted primary antibody solution comprising an anti-calreticulin monoclonal [FMC75] antibody (from mouse, Abcam, Cat. No. ab22683, Lot No. GR56669-4) as the primary antibody prepared with 1% BSA/PBS (−) (PBS (−) containing 1% BSA) to a final concentration of 2.5×10^−3 mg/mL was added to the culture containers of the HeLaS3 cells, and left overnight at 4° C. […] This was then sealed with a cover glass together with an enclosed liquid containing DAPI (4′,6-diamidino-2-phenylindole) (Life Technologies), and fluorescence was observed by confocal laser microscopy. […]

CRAKAGDPC [Sample 1] was tested, and the “fluorescence of the fluorescent label indicating calreticulin (amount of calreticulin expression) compared with the peptide-free group and Sample 12” value [1] was “stronger fluorescence”.

With “KKRTLRKNDRKKR CRAKAGDPC (KKRTLRKNDRKKRCRAKAGDPC) [Sample 9]” the “fluorescence of the fluorescent label indicating calreticulin (expressed amount of calreticulin) compared with the peptide-free group and Sample 12” value [2] was “stronger fluorescence”.

“KKRTLRKNDRKKR GPRPPSLEC (KKRTLRKNDRKKRGPRPPSLEC) [Sample 11]” was tested, and the “fluorescence of the fluorescent label indicating calreticulin (expressed amount of calreticulin) compared with the peptide-free group and Sample 12” value [2] was “strong fluorescence”.

“KKRTLRKNDRKKR NPGASF (KKRTLRKNDRKKRNPGASF) [Sample 10]” was tested, and the “fluorescence of the fluorescent label indicating calreticulin (expressed amount of calreticulin) compared with the peptide-free group and Sample 12” value [2] was “strong fluorescence”.

With LAARAVRFSEKV [Sample 12] the “fluorescence of the fluorescent label indicating calreticulin (expressed amount of calreticulin) compared with the peptide-free group” value [3] was “almost no fluorescence was detected”.
